68 compounds from patent US9334269B2, “Carboxamides as inhibitors of voltage-gated sodium channels” (AMGEN INC., priority 2010, dated 2016) can be followed below.

The assay deals with T1, human Nav1.7 (hNav1.7) (Homo sapiens, UniProt Q15858).
T1 construct: expressed in transfected cells
T1 sequence (Q15858 whole entry): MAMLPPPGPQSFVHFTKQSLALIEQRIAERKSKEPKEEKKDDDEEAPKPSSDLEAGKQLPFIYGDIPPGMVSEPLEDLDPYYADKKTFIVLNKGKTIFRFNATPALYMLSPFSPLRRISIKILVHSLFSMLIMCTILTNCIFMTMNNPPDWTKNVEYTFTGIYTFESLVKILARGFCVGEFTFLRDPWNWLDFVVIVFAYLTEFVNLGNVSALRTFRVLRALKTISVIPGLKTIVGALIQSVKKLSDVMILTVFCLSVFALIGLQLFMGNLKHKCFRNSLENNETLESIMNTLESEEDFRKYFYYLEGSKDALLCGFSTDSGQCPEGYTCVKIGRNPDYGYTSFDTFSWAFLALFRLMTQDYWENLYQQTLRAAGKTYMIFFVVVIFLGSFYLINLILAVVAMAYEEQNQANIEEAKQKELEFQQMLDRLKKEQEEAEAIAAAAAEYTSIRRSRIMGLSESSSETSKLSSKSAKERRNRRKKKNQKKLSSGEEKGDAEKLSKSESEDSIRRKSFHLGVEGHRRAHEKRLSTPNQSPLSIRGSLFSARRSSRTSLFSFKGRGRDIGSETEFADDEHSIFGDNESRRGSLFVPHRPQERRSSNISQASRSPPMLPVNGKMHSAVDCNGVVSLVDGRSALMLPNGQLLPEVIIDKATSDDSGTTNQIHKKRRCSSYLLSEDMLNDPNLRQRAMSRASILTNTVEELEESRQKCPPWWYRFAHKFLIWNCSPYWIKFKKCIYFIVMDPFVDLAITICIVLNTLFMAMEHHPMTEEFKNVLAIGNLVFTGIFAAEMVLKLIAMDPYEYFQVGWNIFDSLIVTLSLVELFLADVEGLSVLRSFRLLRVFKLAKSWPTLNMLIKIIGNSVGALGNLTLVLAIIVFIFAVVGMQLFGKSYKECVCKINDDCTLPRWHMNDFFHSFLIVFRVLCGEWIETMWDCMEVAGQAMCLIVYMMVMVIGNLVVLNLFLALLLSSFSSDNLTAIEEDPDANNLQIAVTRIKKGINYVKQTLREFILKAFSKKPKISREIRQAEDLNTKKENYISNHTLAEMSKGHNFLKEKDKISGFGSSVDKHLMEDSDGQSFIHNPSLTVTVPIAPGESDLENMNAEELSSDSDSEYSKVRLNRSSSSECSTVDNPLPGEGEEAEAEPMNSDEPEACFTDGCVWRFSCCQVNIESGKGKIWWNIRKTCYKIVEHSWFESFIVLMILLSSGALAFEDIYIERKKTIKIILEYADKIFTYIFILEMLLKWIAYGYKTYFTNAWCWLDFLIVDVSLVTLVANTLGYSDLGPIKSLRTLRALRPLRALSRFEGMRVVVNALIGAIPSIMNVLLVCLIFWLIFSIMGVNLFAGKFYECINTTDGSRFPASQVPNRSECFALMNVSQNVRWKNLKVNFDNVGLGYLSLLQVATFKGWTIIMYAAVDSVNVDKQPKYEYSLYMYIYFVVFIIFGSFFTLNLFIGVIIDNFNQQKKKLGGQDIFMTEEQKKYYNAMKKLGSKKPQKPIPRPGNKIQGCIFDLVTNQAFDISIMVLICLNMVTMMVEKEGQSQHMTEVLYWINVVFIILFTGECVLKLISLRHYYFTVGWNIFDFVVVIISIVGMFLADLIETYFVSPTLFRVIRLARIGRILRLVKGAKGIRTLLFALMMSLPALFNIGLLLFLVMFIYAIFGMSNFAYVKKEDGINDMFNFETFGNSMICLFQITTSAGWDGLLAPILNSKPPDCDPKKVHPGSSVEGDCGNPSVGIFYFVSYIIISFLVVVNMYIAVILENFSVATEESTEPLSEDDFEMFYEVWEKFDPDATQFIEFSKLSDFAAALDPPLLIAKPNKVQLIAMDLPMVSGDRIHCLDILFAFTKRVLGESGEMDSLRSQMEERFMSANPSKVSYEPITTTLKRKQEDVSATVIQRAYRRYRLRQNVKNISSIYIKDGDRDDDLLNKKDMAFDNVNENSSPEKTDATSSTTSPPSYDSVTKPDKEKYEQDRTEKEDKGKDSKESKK
Kind of assay: hNav1.7 whole-cell patch-clamp electrophysiology (automated PatchXpress 7000A or manual) in stably expressing 293 cells. Type of assay: cell-based. Particulars: average IC50, human Nav1.7. As for the experimental part: Compounds were tested on human Nav1.7 (hNav1.7) expressed stably in 293 cells, which have no endogenous sodium channels. Two forms of whole-cell patch-clamp assays were used. In both, peak current through Nav1.7 was evoked by a depolarizing voltage pulse, and currents were monitored as a function of time in response to exposure to several different concentrations of drug. Automated electrophysiology uses the PatchXpress 7000A system. Up to sixteen cells at a time were voltage-clamped in parallel, and the steady-state voltage dependence of inactivation was determined experimentally for each cell. For each cell, fractional inactivation was set at 20%, and peak current through Nav1.7 as a function of time was measured in response to increasing concentrations of test compound. Manual electrophysiology refers to conventional whole-cell patch-clamping (Hamill et al., 1981). After formation of the whole-cell clamp, cells were lifted off the bottom of the dish with the patch pipette and positioned directly in front of an array of glass microperfusion tubes each with internal diameter about 250 microns, with individual compound concentrations flowing from each tube. Current as a function of time in response to increasing drug concentrations was measured with Nav1.7 fully in the resting state (holding voltage set to −140 mV) and on the same cells with the holding voltage set to produce about 20% inactivation. Compounds were not applied for a prespecified time, but for as long as required to achieve a stable level of block. For both forms of electrophysiology, offline analysis was used to correct for rundown of channel current and to determine percent inhibition as a function of drug concentration. IC50 were determined by fitting to the Hill equation.
A general note: The patch-clamp technique gives a direct electrical read-out from membranes.
What is called IC50 is the concentration that inhibits the measured activity by half. Low values mean greater potency in that assay, high ones weaker potency in that assay. Compound `CNC(=O)c1cccc(Nc2ncnc(NCCCOc3ccc(OC(F)(F)F)cc3)n2)c1` [Example 13] displayed an IC50 of 0.27 µM.

In turn, `CNC(=O)c1cc(Nc2ncnc(N3CC(Oc4ccc(Cl)cc4F)C3)n2)ccc1F` [Example 14] showed an IC50 of 0.28 µM.

In turn, `CNC(=O)c1cccc(Nc2ncnc(N3CC(Oc4ccc(F)c(Cl)c4)C3)n2)c1` [Example 15] came in with an IC50 of 0.28 µM. `CNC(=O)c1cccc(Nc2ncnc(N3CC(Oc4ccc(F)cc4C)C3)n2)c1` [Example 16]: the IC50 is 0.29 µM.

Turning to `CCc1cccc(OC2CN(c3ncnc(Nc4cccc(C(=O)NC)c4)n3)C2)c1` [Example 17], the IC50 was determined as 0.3 µM. For `CNC(=O)c1cccc(Nc2ncnc(N3CC(Oc4cc(Cl)ccc4Cl)C3)n2)c1` [Example 18], 0.31 µM corresponded to half-maximal inhibition (IC50). The figure for `CNC(=O)c1cccc(Nc2nccc(N3CC(Oc4ccc(Cl)c(C)c4)C3)n2)c1` [Example 19] is 0.31 µM; for `CNC(=O)c1cccc(Nc2ncnc(N3CC(Oc4ccc(Cl)cc4C)C3)n2)c1` [Example 20] it is 0.32 µM; for `CNC(=O)c1cccc(Nc2ncnc(N3CC(Oc4ccc(Cl)cc4F)C3)n2)c1` [Example 21] it is 0.33 µM. For `CNC(=O)c1cccc(Nc2ncnc(N3CC(Oc4ccc5c(c4)CCC5)C3)n2)c1` [Example 22] the value was 0.35 µM; for `CNC(=O)c1cccc(Nc2ncnc(N3CCN(c4cccc(OC(F)(F)F)c4)CC3)n2)c1` [Example 23], 0.35 µM; for `CNC(=O)c1cccc(Nc2ncnc(N3CCC(c4nc(-c5ccccc5)cs4)CC3)n2)c1` [Example 24], 0.38 µM. For `CNC(=O)c1cccc(Nc2ncnc(N3CC(Oc4cccc(Cl)c4)C3)n2)c1` [Example 25] the value was 0.38 µM. On to `CNC(=O)c1cccc(Nc2ncnc(N3CCC(c4csc(-c5ccccc5)n4)CC3)n2)c1` [Example 26], for which the IC50 came to 0.39 µM. This IC50 and that of the compound before are within 1.5-fold of each other. The figure for `CNC(=O)c1cc(Nc2ncnc(N3CCC(c4nc(-c5ccccc5)cs4)CC3)n2)ccc1Cl` [Example 27] is 0.4 µM; for `COCCNC(=O)c1cccc(Nc2ncnc(N3CC(Oc4ccc(Cl)cc4)C3)n2)c1` [Example 28] it is 0.4 µM; for `CNC(=O)c1cccc(Nc2ncnc(N3CC(Oc4ccccc4Cl)C3)n2)c1` [Example 29] it is 0.42 µM.

As to `CNC(=O)c1cccc(Nc2nccc(N3CC(Oc4ccc(Cl)cc4)C3)n2)c1` [Example 30], the IC50 is 0.43 µM. The figure for `CNC(=O)c1cccc(Nc2nccc(N3CC(Oc4ccc(OC)cc4)C3)n2)c1` [Example 31] is 0.43 µM. On to `CNC(=O)c1cccc(Nc2ncnc(N3CC(Oc4ccc(C)cc4Cl)C3)n2)c1` [Example 32], for which half-maximal inhibition (IC50) was put at 0.44 µM. The figure for `CNC(=O)c1cccc(Nc2ncnc(N3CC(Oc4ccccc4)C3)n2)c1` [Example 33] is 0.45 µM; for `CNC(=O)c1cccc(Nc2ncnc(N3CCN(c4ccc(C)cc4)CC3)n2)c1` [Example 34] it is 0.47 µM; for `CNC(=O)c1cccc(Nc2ncnc(N3CC(Oc4ccc(C(F)(F)F)cc4)C3)n2)c1` [Example 35] it is 0.47 µM. With `CNC(=O)c1cccc(Nc2ncnc(N3CCC(C(=O)c4ccc(Cl)cc4)CC3)n2)c1` [Example 36], the IC50 came to 0.49 µM.

Regarding `CNC(=O)c1cc(F)cc(Nc2ncnc(N3CC(Oc4ccc(Cl)cc4)C3)n2)c1` [Example 37], half-maximal inhibition (IC50) required 0.49 µM. The figure for `COCCNC(=O)c1cccc(Nc2ncnc(N3CC(Oc4ccc(F)cc4)C3)n2)c1` [Example 38] is 0.5 µM.

`CNC(=O)c1cccc(Nc2ncnc(N3CC(Oc4ccc(Cl)c(Cl)c4)C3)n2)c1` [Example 39] displayed a 50% inhibitory concentration (IC50) of 0.5 µM. The figure for `CNC(=O)c1cccc(Nc2ncnc(N3CC(COc4ccc(Cl)cc4)C3)n2)c1` [Example 40] is 0.5 µM; for `CNC(=O)c1cccc(Nc2ncnc(N3CCc4cc(OCC(F)(F)F)ccc4C3)n2)c1` [Example 41] it is 0.52 µM; for `CNC(=O)c1cccc(Nc2ncnc(N3CC(Oc4ccc(C(C)C)cc4)C3)n2)c1` [Example 42] it is 0.57 µM. The figure for `CNC(=O)c1cccc(Nc2ncnc(N3CCN(c4cccc(C(F)(F)F)c4)CC3)n2)c1` [Example 43] is 0.6 µM; for `CNC(=O)c1cccc(Nc2ncnc(N3CCN(c4cccc(OC)c4)CC3)n2)c1` [Example 44] it is 0.61 µM. The compound `CNC(=O)c1cccc(Nc2ncnc(N3CCC(Oc4ccccc4)CC3)n2)c1` [Example 45] showed an IC50 of 0.63 µM. The figure for `CNC(=O)c1cccc(Nc2ncnc(N3CC=C(c4csc(-c5ccccc5)n4)CC3)n2)c1` [Example 46] is 0.63 µM; for `COCCNC(=O)c1cccc(Nc2ncnc(N3CC(COc4ccc(Cl)cc4)C3)n2)c1` [Example 47] it is 0.64 µM. For `CNC(=O)c1cccc(Nc2ncnc(N3CCC(Oc4cccc(F)c4)CC3)n2)c1` [Example 48] the value was 0.65 µM; for `CNC(=O)c1cccc(Nc2ncnc(N3CC(Oc4cccc(C)c4)C3)n2)c1` [Example 49], 0.65 µM. Regarding `CNC(=O)c1cc(Nc2ncnc(N3CC(Oc4ccc(Cl)cc4)C3)n2)ccc1N(C)C` [Example 50], the IC50 amounted to 0.65 µM. The figure for `CNC(=O)c1cccc(Nc2ncnc(N3CC(Oc4ccc(Cl)cc4Cl)C3)n2)c1` [Example 51] is 0.65 µM; for `CNC(=O)c1cccc(Nc2ncnc(N3CC=C(c4nc(-c5ccccc5)cs4)CC3)n2)c1` [Example 52] it is 0.66 µM; for `CNC(=O)c1cccc(Nc2ncnc(N3CCN(c4ccc(C)c(C)c4)CC3)n2)c1` [Example 53] it is 0.69 µM.

On to `CNC(=O)c1cccc(Nc2ncnc(N3CC(Oc4ccc(F)cc4Cl)C3)n2)c1` [Example 54], for which it took 0.72 µM to reach half-maximal inhibition (IC50). As to `CNC(=O)c1cccc(Nc2nccc(N3CC(Oc4ccc(Cl)c(F)c4)C3)n2)c1` [Example 55], the midpoint of inhibition, the IC50, lay at 0.74 µM. The figure for `CNC(=O)c1cccc(Nc2cccc(N3CC(Oc4ccc(F)cc4)C3)n2)c1` [Example 56] is 0.75 µM. For `CNC(=O)c1cc(Nc2ncnc(N3CC(Oc4ccc(F)cc4)C3)n2)ccc1F` [Example 57] the value was 0.76 µM; for `CNC(=O)c1cccc(Nc2ncnc(N3CCC(Oc4ccc(OC(F)(F)F)cc4)CC3)n2)c1` [Example 58], 0.76 µM; for `CNC(=O)c1cccc(Nc2nccc(N3CC(Oc4ccc(Cl)c(Cl)c4)C3)n2)c1` [Example 59], 0.78 µM. As to `CNC(=O)c1cccc(Nc2ncnc(N3CCN(c4cccc(F)c4)CC3)n2)c1` [Example 60], the IC50 is 0.79 µM. Regarding `CNC(=O)c1cccc(Nc2ncnc(N3CC(Oc4ccc(F)cc4)C3)n2)c1` [Example 61], the IC50 came to 0.81 µM. `CNC(=O)c1cccc(Nc2ncnc(N3CC(Oc4cccc(C(F)(F)F)c4)C3)n2)c1` [Example 62] registered an IC50 of 0.82 µM.

For the compound `CNC(=O)c1cccc(Nc2ncnc(N3CC(Oc4c(Cl)cccc4Cl)C3)n2)c1` [Example 63], it took 0.82 µM to reach half-maximal inhibition (IC50). `CNC(=O)c1cc(Nc2ncnc(NCCCOc3ccc(OC(F)(F)F)cc3)n2)ccc1F` [Example 64] showed an IC50 of 0.83 µM. Compound `CNC(=O)c1cccc(Nc2ncnc(N3CCC(c4ccccc4)CC3)n2)c1` [Example 65] gave an IC50 of 0.84 µM. `CNC(=O)c1cccc(Nc2ncnc(N3CC(Oc4cc(C)ccc4Cl)C3)n2)c1` [Example 66] had an IC50 of 0.84 µM. The figure for `CNC(=O)c1cccc(Nc2ncnc(N3CC(COc4ccc(OC(F)(F)F)cc4)C3)n2)c1` [Example 67] is 0.85 µM; for `CNC(=O)c1cccc(Nc2ncnc(N3CCC(Oc4ccc(OC(F)(F)F)c(F)c4)CC3)n2)c1` [Example 68] it is 0.86 µM. For `CNC(=O)c1cccc(Nc2ncnc(N3CCN(c4cccc(Cl)c4)CC3)n2)c1` [Example 69] the value was 0.87 µM; for `CNC(=O)c1cc(Nc2ncnc(N3CC(COc4ccc(Cl)cc4)C3)n2)ccc1F` [Example 70], 0.89 µM; for `CNC(=O)c1cccc(Nc2ccnc(N3CC(Oc4ccc(F)cc4)C3)n2)c1` [Example 71], 0.9 µM. For `CNC(=O)c1cccc(Nc2ncnc(N3CCc4c(C#N)cccc4C3)n2)c1` [Example 72] the value was 0.9 µM; for `CNC(=O)c1cccc(Nc2ncnc(N3CC(COc4ccc(Cl)cc4C)C3)n2)c1` [Example 73], 0.9 µM.

In the case of `CNC(=O)c1cccc(Nc2ncnc(N3CCN(c4ccc(C(F)(F)F)cc4)CC3)n2)c1` [Example 74], the midpoint of inhibition, the IC50, lay at 0.96 µM.

Regarding `CNC(=O)c1cc(Nc2ncnc(NCCCOc3ccc(OC(F)(F)F)cc3)n2)ccc1Cl` [Example 75], half-maximal inhibition (IC50) required 0.96 µM.

Take `CNC(=O)c1cccc(Nc2ncnc(N3CCN(c4cccc(C)n4)CC3)n2)c1` [Example 76]: the IC50 was 0.97 µM. For `CNC(=O)c1cccc(Nc2ncnc(N3CCc4cc(OCCC(F)(F)F)ccc4C3)n2)c1` [Example 77] the value was 0.98 µM.

Consider `C#Cc1cccc(OC2CN(c3ncnc(Nc4cccc(C(=O)NC)c4)n3)C2)c1` [Example 78], for which it took 0.99 µM to reach half-maximal inhibition (IC50). For `CNC(=O)c1cc(Nc2ncnc(N3CC(Oc4ccc(Cl)cc4F)C3)n2)ccc1Cl` [Example 79] the value was 1 µM; for `CNC(=O)c1cccc(Nc2ncnc(N3CC(Oc4cccc(OC)c4)C3)n2)c1` [Example 80], 1.03 µM.
